In patent publication US4732977A, “Carbapenem antibiotics” (priority 1986, dated 1988):
Converted amounts (≈) assume the structure as drawn. Structures can show the parent of a compound that is named as a salt. Where two headings read alike, the source gives them in different places.

How the values were obtained:
S. aureus A-9537 = assay: M.I.C., tube dilution; type: cell-based; details: Staphylococcus aureus
S. faecalis A20688 = assay: M.I.C., tube dilution; type: cell-based; details: Enterococcus faecalis, A20688, overnight incubation at 37° C., Nutrient Broth; read-out: MIC
E. coli A15119 = assay: M.I.C., tube dilution; type: cell-based; details: Escherichia coli, A15119, 10^-4 dil.
E. coli A20341-1 = assay: M.I.C., tube dilution; type: cell-based; details: Escherichia coli, A203411; 10^-4; read-out: MIC
P. vulgaris A21559 = assay: M.I.C., tube dilution; type: cell-based; details: Proteus vulgaris, A21559, overnight incubation at 37° C., Nutrient Broth; read-out: MIC
P. morganii A15153 = assay: M.I.C., tube dilution; type: cell-based; details: Morganella morganii, A15153
P. aeruginosa A-9843A [1] = assay: M.I.C., tube dilution; type: cell-based; details: Pseudomonas aeruginosa, A9843A, overnight incubation at 37° C., Nutrient Broth
P. aeruginosa A21213 = assay: M.I.C., tube dilution; type: cell-based; details: Pseudomonas aeruginosa, A21213, overnight incubation at 37° C., Nutrient Broth; read-out: MIC
H. influenzae A-9833 = assay: M.I.C., tube dilution; type: cell-based; details: Haemophilus influenzae, A9833; overnight incubation at 37° C., Nutrient Broth
H. influenzae A21518 = assay: M.I.C., tube dilution; type: cell-based; details: Haemophilus influenzae, overnight incubation at 37° C., Nutrient Broth
B. fragilis A22862 = assay: M.I.C., tube dilution; type: cell-based; details: Bacteroides fragilis, overnight incubation at 37° C., Nutrient Broth
B. fragilis A22053 = assay: M.I.C., tube dilution; type: cell-based; details: Bacteroides fragilis, overnight incubation at 37° C., Nutrient Broth
B. fragilis A22863 = assay: M.I.C., tube dilution; type: cell-based; details: Bacteroides fragilis, overnight incubation at 37° C., Nutrient Broth
P. mirabilis A-9900 [2] = assay: Protective effect in intramuscular treatment of infected mice; type: in vivo; details: Proteus mirabilis
Experimental: (§1) The PD50 (dose in mg/kg required to give protection to 50% of the infected mice) is indicated.
with drugs 0 and 2 hours postinfection.
(§2) The PD50 (dose in mg/kg) required to give protection to 50% of the infected mice is indicated.

P. aeruginosa A-9843a [3] = assay: animal or person; type: in vivo, mice; details: Pseudomonas aeruginosa, A9843A, im
Experimental: as §1
with drugs 0 and 2 hours postinfection.
as §2

P. aeruginosa A-20481 = assay: Protective effect in intramuscular treatment of infected mice; type: in vivo; details: Pseudomonas aeruginosa, A20481, im, i.m. 0 and 2 h postinfection, challenge 5.4 × 10^4 organisms, * = historical data, read-out: PD50/Treatment
P. aeruginosa A-20599 = assay: as above; type: in vivo; details: Pseudomonas aeruginosa, A20599, im, i.m. 0 and 2 h postinfection, challenge 1.4 × 10^5 organisms, * = historical data, read-out: PD50/Treatment
S. aureus A-9606 = assay: as above; type: in vivo; details: Staphylococcus aureus, read-out: PD50/treatment
S. faecalis A-20688 = assay: as above; type: in vivo; details: Enterococcus faecalis, A20688, im, i.m. 0 and 2 h postinfection, challenge 2.3 × 10^8 organisms, * = historical data, read-out: PD50/Treatment
E. coli A-15119 = assay: as above; type: in vivo; details: Escherichia coli
Experimental: as §1
with drugs 0 and 2 hours postinfection.
as §2

[4] = Urinary recovery after intramuscular administration to mice; type: in vivo; details: mouse, urine, im, 20 mg/kg, 20 mg/kg i.m.
Text: | a single test; 4 mice per compound.

in vivo = details: mouse
[5] = Toxicity after intracranial administration to mice; details: mouse, in vivo
[6] = Blood levels in mice after intramuscular administration;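 also: compounds dissolved in 0.1 M phosphate buffer at pH 7, data from one experiment using four mice for each compound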
Text: Compounds were solubilized in 0.1 M phosphate buffer pH 7.
a single test; 4 mice used per compound.
Compounds were solubilized in 0.1 M phosphate buffer, pH 7.
on a single test; 4 mice per compound.

S. pyogenes A-9604 = assay: M.I.C., tube dilution; type: cell-based; details: Streptococcus pyogenes, A9604; overnight incubation at 37° C., Nutrient Broth; read-out: MIC
[7] = tested on: S. aureus A15097 (Meth-res.); assay: M.I.C., tube dilution; type: cell-based; details: Staphylococcus aureus, overnight incubation at 37° C.
K. pneumoniae A-9664 = assay: M.I.C., tube dilution; type: cell-based; details: Klebsiella pneumoniae, A9664, overnight incubation at 37° C., Nutrient Broth; read-out: MIC
K. pneumoniae A20468 = assay: M.I.C., tube dilution; type: cell-based; details: Klebsiella pneumoniae, A20468, overnight incubation at 37° C., Nutrient Broth; read-out: MIC
P. mirabilis A-9900 [8] = assay: M.I.C., tube dilution; type: cell-based; details: Proteus mirabilis, A9900, overnight incubation at 37° C., Nutrient Broth; read-out: MIC
P. rettgeri A22424 = assay: M.I.C., tube dilution; type: cell-based; details: Providencia rettgeri, A22424; overnight incubation at 37° C., Nutrient Broth; read-out: MIC
S. marcescens A20019 = assay: M.I.C., tube dilution; type: cell-based; details: Serratia marcescens, A20019; overnight incubation at 37° C., Nutrient Broth; read-out: MIC
E. cloacae A-9659 = assay: M.I.C., tube dilution; type: cell-based; details: Enterobacter cloacae, A9659; overnight incubation at 37° C., Nutrient Broth; read-out: MIC
E. cloacae A-9656 = assay: M.I.C., tube dilution; type: cell-based; details: Enterobacter cloacae, A9656, overnight incubation at 37° C., Nutrient Broth; read-out: MIC
B. fragilis A22696 = assay: M.I.C., tube dilution; type: cell-based; details: Bacteroides fragilis, overnight incubation at 37° C., Nutrient Broth
K. pneumoniae A9664 = assay: Protective effect in intramuscular treatment of infected mice; type: in vivo; details: Klebsiella pneumoniae, im, K. pneumoniae A9664, read-out: PD50/treatment
Text: as §2

P. aeruginosa A24081 = assay: as above; type: in vivo; details: Pseudomonas aeruginosa, A24081, im, read-out: PD50/treatment
Text: as §2

SMILES: C[C@@H](O)[C@H]1C(=O)N2C(C(=O)[O-])=C(SCc3cc[n+](C)cc3)C[C@H]12 [Example 1, 1-Methyl-4-[2-carboxy-6α-[1(R)-hydroxyethyl]-7-oxo-1-azabicyclo[3.2.0]hept-2-en-3-thiomethyl]pyridinium hydroxide inner salt]
- MIC (S. aureus A-9537; A9537, overnight incubation at 37° C., Nutrient Broth): 0.13 µg/mL
- MIC (S. aureus A-9537; A9537, +50% serum): 0.03 µg/mL
- MIC (S. faecalis A20688): 0.5 µg/mL
- MIC (E. coli A15119): 0.06 µg/mL
- MIC (E. coli A20341-1): 0.03 µg/mL
- MIC (P. vulgaris A21559): 0.13 µg/mL
- MIC (P. morganii A15153): 0.13 µg/mL
- MIC (P. aeruginosa A-9843A [1]): 4 µg/mL
- MIC (P. aeruginosa A21213): 1 µg/mL
- MIC (H. influenzae A-9833): 16 µg/mL
- MIC (H. influenzae A21518): 16 µg/mL
- MIC (B. fragilis A22862): 0.03 µg/mL
- MIC (B. fragilis A22053): 0.03 µg/mL
- MIC (B. fragilis A22863): 0.03 µg/mL
- ED50 (P. mirabilis A-9900 [2]; A9900, im, read-out: PD50/Treatment): 3.3 mg/kg
- ED50 (P. aeruginosa A-9843a [3]; mice, i.m. 0 and 2 h postinfection, challenge 5.5 × 10^4 organisms, * = historical data, read-out: PD50/Treatment): 0.3 mg/kg
- ED50 (P. aeruginosa A-20481): 0.63 mg/kg
- ED50 (P. aeruginosa A-20599): 0.7 mg/kg
- ED50 (S. aureus A-9606; A9606, im): 0.09 mg/kg
- ED50 (S. faecalis A-20688): 3.3 mg/kg
- ED50 (E. coli A-15119; A15119, im, 3.5 h, read-out: PD50/Treatment): 0.6 mg/kg
- dose excreted at 3 h ([4]; 0-3 hours): 26.1%
- dose excreted at 24 h ([4]; 0-24 hours): 26.7 ± 6.7%
- dose excreted at 6 h ([4]; 3-6 hours): 0.5%
- dose excreted at 24 h ([4]; 6-24 hours): 0.1%
- NOAEL (in vivo): 5 mg/kg
- LD50 [5]: 14 mg/kg
- AUC ([6]; mice, 20 mg/kg i.m. (table 9)): 6300 ng·h/mL
- T1/2 ([6]; mice, 20 mg/kg i.m. (table 9)): 10 min
- AUC ([6]; mouse, blood, im, 20 mg/kg): 6300 ng·h/mL
- Cmax ([6]; mouse, blood, im, 20 mg/kg): 14000 ng/mL
- half-life ([6]; mouse, in vivo, im, 20 mg/kg): 10 min

SMILES: C[C@@H](O)[C@H]1C(=O)N2C(C(=O)[O-])=C(SCc3cccc[n+]3C)C[C@H]12 [Example 4, 3-(N-Methylpyridine-2-yl-methanethio)-6α-[1-(R)-hydroxyethyl]-7-oxo-1-azabicyclo(3.2.0)hept-2-ene-2-carboxylate]
- MIC (S. pyogenes A-9604): 0.001 µg/mL (≈ 0.00299 µM)
- MIC (S. aureus A-9537; A9537, +50% serum, read-out: MIC): 0.03 µg/mL (≈ 0.0897 µM)
- MIC [7]: 4 µg/mL (≈ 12 µM)
- MIC (S. faecalis A20688): 0.5 µg/mL (≈ 1.5 µM)
- MIC (K. pneumoniae A-9664): 0.03 µg/mL (≈ 0.0897 µM)
- MIC (K. pneumoniae A20468): 0.03 µg/mL (≈ 0.0897 µM)
- MIC (P. mirabilis A-9900 [8]): 0.06 µg/mL (≈ 0.179 µM)
- MIC (P. vulgaris A21559): 0.016 µg/mL (≈ 0.0478 µM)
- MIC (P. rettgeri A22424): 0.13 µg/mL (≈ 0.389 µM)
- MIC (S. marcescens A20019): 0.03 µg/mL (≈ 0.0897 µM)
- MIC (E. cloacae A-9659): 0.03 µg/mL (≈ 0.0897 µM)
- MIC (E. cloacae A-9656): 0.06 µg/mL (≈ 0.179 µM)
- MIC (P. aeruginosa A21213): 0.13 µg/mL (≈ 0.389 µM)
- MIC (H. influenzae A-9833): 2 µg/mL (≈ 5.98 µM)
- MIC (H. influenzae A21518): 2 µg/mL (≈ 5.98 µM)
- MIC (B. fragilis A22862): 0.06 µg/mL (≈ 0.179 µM)
- MIC (B. fragilis A22696): 0.5 µg/mL (≈ 1.5 µM)
- ED50 (P. mirabilis A-9900 [2]; im, mice, i.m., P. mirabilis A9900, read-out: PD50/treatment): 4 mg/kg
- ED50 (P. aeruginosa A-9843a [3]; in Mus musculus, read-out: PD50/treatment): 0.2 mg/kg
- ED50 (S. aureus A-9606; im, mice, i.m., S. aureus A9606): 0.1 mg/kg
- ED50 (E. coli A-15119; im, mice, i.m., E. coli A15119, read-out: PD50/treatment): 0.4 mg/kg
- ED50 (K. pneumoniae A9664): 3 mg/kg
- ED50 (P. aeruginosa A24081): 0.2 mg/kg
- AUC ([6]; mouse, blood, im, 20 mg/kg): 7700 ng·h/mL
- Cmax ([6]; mouse, blood, im, 20 mg/kg): 15500 ng/mL
- half-life ([6]; mouse, blood, im, 20 mg/kg): 11 min
